What all share (format): in vivo, human
Data set [1] relates to asymptomatic Stargardt disease patients. The experiment in a line: TEASE-3: best-corrected visual acuity (BCVA). As to conditions: 14 mg daily. On the procedure: (§1) The tolerability and effects of gildeuretinol acetate in Stargardt Disease (Clinical trial group 3 also known as TEASE-3) study was an open-label, multicenter, case control study designed to evaluate the efficacy and safety of gildeuretinol acetate on the progression of Stargardt disease in asymptomatic individuals. The trial was conducted at multiple sites in the United States.
To assess the safety and efficacy of gildeuretinol acetate in preventing vision loss in asymptomatic individuals, gildeuretinol acetate 14 mg capsules was administered to individuals showing early signs of retinal damage while maintaining approximately 20/20 vision and no subjective loss of vision. […] Based on the above family history and clinical observations, the individuals were likely to develop retinal lesions, loss of photoreceptors, drops in retinal sensitivity, loss of visual acuity, indicating the onset of symptoms, i.e. a progression to the symptomatic phase, including vision loss within two years, mirroring the progression observed in their older siblings.
(§2) Patients received gildeuretinol acetate 14 mg capsules, to be taken orally once daily. Trial visits occurred every 6 months approximately following screening and treatment start visits.
Disease progression was monitored by best-corrected visual acuity (BCVA) reported in number of Early Treatment Diabetic Retinopathy Study (ETDRS) letters, fundus autofluorescence (FAF) imaging, loss of photoreceptors (as measured by the ellipsoid zone band loss) by optical coherence tomography (OCT) according to literature (1-3) and retinal sensitivity by microperimetry.
Measurements from the left and right eye for each patient were averaged for each visit to produce a single statistical unit for both eyes(4). For segmented linear regressions, knot times were selected so that three visits were included in the first segment.

Data set [2] can be described thus: Open-label multiple dose pharmacokinetic study in healthy volunteers (percentage of deuterated vitamin A in plasma, LC/MS). As to conditions: for % D3 Vitamin A: average over 24 hours, from AUC. The protocol: Study Design: This was an open-label, non-randomized, multiple dose study in healthy volunteers aged 21 to 70 years of age (inclusion criteria). Subjects who met all entrance criteria at screening were invited to receive the study medication. There were six treatment arms: 2 mg/day, 3.5 mg/day, 5 mg/day, 7 mg/day, 10 mg/day and 14 mg/day gildeuretinol acetate. For the four lower dose groups, the dose regimen was one capsule per day, orally, to be taken at home, preferably in the evening unless a different time was preferred by the subject. For the two highest doses, the dose regimen was two capsules per day, one in the morning and one in the evening, although subjects with a preference to take both capsules at once were offered to do so. After taking the 1st dose at the study site, subjects were invited to return two and four weeks after starting the treatment.
The clinical staff made periodic calls to monitor adverse events and ensure subject compliance. In addition, a text message was sent daily to remind subjects to take their medication. Subjects were instructed to avoid foods that contain large amounts of vitamin A (such as liver-based products), including supplements containing vitamin A, and to report their vitamin A intake by answering a daily text message diary. Fruits and vegetables were permitted without restriction.
Deuterated retinol (gildeuretinol) (“D3”) and non-deuterated retinol (“Do”) and other vitamin A metabolites were measured to calculate the percentage of deuterated vitamin A in plasma. For all treatment groups, plasma samples were collected at baseline, 14±1 days (“2 weeks”) and 28±1 days (“4 weeks”) after initiation of treatment. Blood samples were usually collected following at least 10 hours of fasting (including last gildeuretinol acetate intake), preferably in the morning. For the 7 mg/day and the 14 mg/day groups only, after the first and last dose, blood samples were collected every 4 hours for 24 hours. A liquid chromatography/mass spectrometry assay was used to measure the metabolite levels.
Table 2 provides % D3 Retinol (gildeuretinol, i.e. the percentage of deuterated retinol (gildeuretinol) over total retinol (as deuterated+non-deuterated) in plasma measured 12-24 hours following gildeuretinol acetate intake.
Pharmacokinetic Results (integrated levels over 24 hours post dosing): total vitamin A in plasma, both deuterated (gildeuretinol) and non-deuterated (retinol), was measured every 4 hours following administration of 7 mg or 14 mg at the first dose, and following administration of the 28th dose (4 weeks of daily treatment). The area under the curve (AUC) was calculated and the % deuterated % D3 of total vitamin A (as retinol and gildeuretinol) was computed as an average over 24 hours.

A short description of data set [3]: TEASE-3: safety. As to conditions: 14 mg daily, three patients. On the procedure:
as §2
Ocular safety was assessed by retinal imaging and ocular exam, which included evaluation of the anterior and posterior segments and the lens. Systemic safety was assessed by physical exam, comprehensive clinical labs (biochemistry, hematology, lipids), and 12-lead ECG.

The nature of data set [4]: TEASE-1: plasma gildeuretinol (replacement of plasma vitamin A). As to conditions: for percentage of gildeuretinol over total vitamin A (retinol + gildeuretinol): 8-week pharmacokinetic analysis, plasma. On the procedure:
The Tolerability and Effects of gildeuretinol acetate in Stargardt Disease (Clinical trial group 1 also known as TEASE-1) was a 24-month, multicenter, double-masked, placebo-controlled trial designed to evaluate the efficacy and safety of daily oral gildeuretinol acetate in slowing the growth of atrophic retinal lesions in Stargardt disease patients. The trial was conducted at multiple sites in the United States (NCT02402660).
Patients 12 years or older, clinically diagnosed with Stargardt disease, with at least one ABCA4 mutation, at least one eye presenting with well-demarcated areas of reduced fundus autofluorescence, and with any visual acuity, were eligible.
Patients were randomized to gildeuretinol acetate 14 mg capsules, gildeuretinol acetate 24 mg capsules, or placebo capsules, to be taken once daily for one year. After one year, 50% of randomly selected patients receiving placebo were crossed over in a 1:1 ratio to gildeuretinol acetate 14 mg capsules or gildeuretinol acetate 24 mg capsules for a second year.
Gildeuretinol acetate and placebo capsules were identical appearing capsules. Patients were advised to avoid vitamin A-containing supplements and liver-based products. Fruits and vegetables contain beta-carotene, not preformed vitamin A, and could be consumed without limitation. Trial visits occurred at 8 weeks and 6, 12, 18, and 24 months following screening and randomization.

The subject of data set [5] is asymptomatic Stargardt disease patients. In words: TEASE-3: disease progression. Conditions: 14 mg daily. The protocol:
as §1
(§3) To assess the safety and efficacy of gildeuretinol acetate in preventing vision loss in asymptomatic individuals, gildeuretinol acetate 14 mg capsules was administered to individuals showing early signs of retinal damage while maintaining approximately 20/20 vision and no subjective loss of vision. […]
(§4) Disease progression was monitored by best-corrected visual acuity (BCVA) reported in number of Early Treatment Diabetic Retinopathy Study (ETDRS) letters, fundus autofluorescence (FAF) imaging, loss of photoreceptors (as measured by the ellipsoid zone band loss) by optical coherence tomography (OCT) according to literature (1-3) and retinal sensitivity by microperimetry. […]

Data set [6] shares this test system. The experiment in a line: TEASE-3: fundus autofluorescence (FAF) imaging. As to conditions: 14 mg daily, two to four years, three patients. The protocol: as §1, §3, §4

The results in this text go back to patent publication US20260345517A1, “DOSAGE REGIMENS FOR TREATING STARGARDT DISEASE” (Alkeus Pharmaceuticals, Inc., priority 2024, published 2026).

“Also recorded” adds a separate entry of the source.

Consider `CC(=O)OC/C=C(C)/C=C/C=C(C)/C=C/C1=C(C)CCCC1(C)C` [gildeuretinol acetate, C20-D3-retinol acetate], for which the “BCVA of treated siblings” value in data set [1] (2 to 4 years) is listed as 88±4 ETDRS letters. Moreover, the “average improvement of BCVA versus untreated siblings” value in data set [1] (age-matched untreated siblings) amounted to 22±13 letters. In data set [1] (age-matched untreated siblings), the “average improvement of BCVA versus untreated siblings, lines of vision on the ETDRS eyechart” value was “four”. Also, the “% D3 Vitamin A” value came out at 38% in data set [2] (7 mg/day, 1st dose); 75% in data set [2] (7 mg/day, 28th dose); 52% in data set [2] (14 mg/day, 1st dose); 85% in data set [2] (14 mg/day, 28th dose). Also, the “average percentage of deuterated plasma vitamin A of total vitamin A (retinol + gildeuretinol)” value in data set [2] (14 mg once daily, after 4 weeks) is recorded as 85%. Moreover, in data set [3], the “adverse reactions linked to excessive or insufficient vitamin A” value is “None of the three treated Stargardt disease asymptomatic patients exhibited adverse reactions”. In addition, the “replacement of vitamin A with gildeuretinol” value in data set [4] (14 mg and 24 mg once daily, about 24 months) is “over 80%”. The “replacement of plasma vitamin A sustained throughout the treatment period” value in data set [4] (14 mg and 24 mg, throughout treatment) was “greater than 80%”. In addition, the figures for the “percentage of gildeuretinol over total vitamin A (retinol + gildeuretinol)” value in data set [4] (14 mg) and in data set [4] (24 mg) were 87% and 92%, respectively. The “replacement of serum vitamin A with gildeuretinol” value in data set [4] (14 to 24 mg daily, within a matter of weeks) was “more than 80%”. Besides, the “patients with over 80% of plasma vitamin A replaced” value in data set [4] (after six months) is recorded as 39 out of 40. In addition, the “total plasma vitamin A and retinoic acid (combined vitamin A and gildeuretinol-derived forms) versus placebo” value in data set [4] (gildeuretinol acetate vs placebo groups) was “the same”. Also, the “disease progression / vision loss during treatment (in words)” value in data set [5] (2 to 4 years, asymptomatic patients) is “arrested loss of vision and retinal pathology; also recorded: no observable disease progression; also recorded: effectively prevented vision loss and further retinal damage; also recorded: no vision loss or disease progression”. For the same compound, the “photoreceptor and retinal sensitivity outcomes with prolonged treatment” value in data set [5] (prolonged treatment) is “trended toward an improvement”. Also, in data set [6], the “changes by FAF (flecks, autofluorescence, atrophy)” value was “none of the three treated asymptomatic Stargardt disease patients exhibited changes by FAF; also recorded: absence of FAF changes in all three Stargardt disease patients”.
